Publication PMC10831071, “Reaction hijacking inhibition of Plasmodium falciparum asparagine tRNA synthetase” (Nature Communications, 2024)
Values after ≈ are worked out from the molar mass of the structure shown. Values joined by “and” are separate entries in the source; they are usually repeats but may differ in a detail not shown here. Equal entries are not always repeated. Where two headings read alike, the source gives them in different places.

How the values were obtained:
[1] = test system: P. falciparum (3D7); experiment: Activity against P. falciparum 3D7 cultures, 72 h (PfLDH growth inhibition / flow cytometry); format: cell-based, Plasmodium falciparum
Procedure: Antimalarial activity against P. falciparum 3D7 was tested by TCGLS, Kolkata, India, using the lactate dehydrogenase (PfLDH) growth inhibition assay. […] Plates were shaken to ensure mixing and were placed in the dark at 21 °C for 20 min. […] P. falciparum strain (3D7) was obtained from BEI Resources.
Viability was assessed in the second cycle by flow cytometry, following labeling with 2 μM Syto-61 (Thermo Fisher Scientific)[48],[49]. Viability represents the parasitemia normalized to untreated and “kill” controls that were treated with 2 μM dihydroartemisinin (DHA; Sigma-Aldrich) for 48–72 h. For drug pulse assays, tightly synchronized Cam3.II-rev[50] parasites (1–1.5% parasitemia, 0.2% final hematocrit) were added to the plates and incubated for 6 h. Drugs were removed and the parasitemia assessed in the trophozoite stage of the next cycle.

[2] = Metabolic stability in human liver microsomes; format: in vitro ADME; conditions: n = 2
Procedure: A solution of the test compounds in phosphate buffer solution (1 µM) was incubated in pooled human and mouse liver microsomes (0.5 mg/ml) for 0, 5, 20, 30, 45 and 60 min at 37 °C in the presence and absence of an NADPH regeneration system (NRS). The tests were carried out by TCGLS, Kolkata, India. The reaction was terminated with the addition of ice-cold acetonitrile, containing a […] standard, at designated time points. The sample was centrifuged (3300 × g) for 20 min at 20 °C and the supernatant was diluted by half in water and then analyzed by LC-MS/MS. The % parent compound remaining, half-life (T1/2) and clearance (CLint,app) were calculated using standard methodology. The experiment was carried out in duplicate. Verapamil, diltiazem, phenacetin and imipramine were used as reference standards.

[3] = Stability in rat hepatocytes; format: in vitro ADME
[4] = test system: P. falciparum Dd2-B2 clone; experiment: microbe, parasite or virus in culture; format: cell-based, Plasmodium falciparum; conditions: Plasmodium falciparum, DD2
Source text: Wells were monitored daily by smear during the first 7 days to ensure parasite clearance, during which media was changed daily. […] Whole-genome sequencing analysis employed MiSeq data from libraries of 2 × 300 bp paired end reads.

[5] = test system: control YFP line (TetR/DOZI module); experiment: OSM-S-106 susceptibility assay, control YFP line; format: cell-based, Plasmodium falciparum; conditions: YFP-aptamer control line
Procedure: Synchronous ring-stage PfAsnRS, PfAlaRS, PfGlyRS, PfNT4, PfGDH3, and PfCA cKD parasites, as well as a control line expressing a fluorescent protein under the control of the TetR/DOZI module, were maintained in 0.5 µM aTc to achieve wild-type protein levels, and 0.001 or 0.0015 µM aTc for knockdown of PfAsnRS, PfAlaRS and PfGlyRS, and no aTc for knockdown of PfNT4, PfGDH3 and PfCA. DMSO- and dihydroartemisinin-treatment (0.5 µM) served as reference controls.

[6] = target: PfAsnRS (Plasmodium falciparum, UniProt O96198); experiment: biochemical
[7] = Solubility; format: physicochemical
[8] = Solid state stability under ambient conditions; format: physicochemical

PfAsnRS, sequence (O96198 entry or part of it): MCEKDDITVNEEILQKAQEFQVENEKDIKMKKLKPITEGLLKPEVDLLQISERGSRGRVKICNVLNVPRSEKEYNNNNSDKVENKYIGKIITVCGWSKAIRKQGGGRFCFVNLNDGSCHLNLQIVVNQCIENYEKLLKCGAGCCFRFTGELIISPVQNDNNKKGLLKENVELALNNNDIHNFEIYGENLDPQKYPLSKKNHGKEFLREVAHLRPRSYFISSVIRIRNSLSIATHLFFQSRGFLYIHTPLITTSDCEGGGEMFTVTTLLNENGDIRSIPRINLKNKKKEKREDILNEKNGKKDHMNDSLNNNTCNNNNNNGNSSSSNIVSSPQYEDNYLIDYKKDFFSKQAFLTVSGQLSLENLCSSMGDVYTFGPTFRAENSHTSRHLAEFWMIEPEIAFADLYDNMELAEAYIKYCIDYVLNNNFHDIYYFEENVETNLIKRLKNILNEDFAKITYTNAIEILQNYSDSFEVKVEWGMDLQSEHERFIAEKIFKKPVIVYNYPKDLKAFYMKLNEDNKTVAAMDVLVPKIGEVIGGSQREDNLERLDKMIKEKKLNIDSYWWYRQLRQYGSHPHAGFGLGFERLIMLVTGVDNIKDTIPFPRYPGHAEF

SMILES: Nc1ncnc2cc(-c3cccc(S(N)(=O)=O)c3)sc12 [OSM-S-106]
- IC50 ([1]; Plasmodium falciparum, 3D7, 72 h, read-out: Pf3D7 IC50(72 h), 72 h, mean ± SD or duplicate values): 58 ± 17 nM
- IC50 ([1]; Plasmodium falciparum, 3D7, read-out: amount needed to kill parasite cultures): ~60 nM
- IC50 ([1]; read-out: Pf3D7 IC50 (72h), individual biological repeats (source data of Table 1)): 61.1 nM and 52.7 nM and 87.1 nM and 79.6 nM and 50.5 nM and 48.8 nM and 37.9 nM and 43.7 nM
- Degradation half-life [2]: 395/619
- stability during incubation with rat hepatocytes [3]: stable
- IC50 [4]: 88.9 nM
- IC90 [4]: 169 nM
- Growth ([5]; 3.125 nM OSM-S-106, 500 nM aTc): 98.4708 and 116.919 and 104.321
- Growth ([5]; 3.125 nM OSM-S-106, no aTc): 98.4734 and 92.161 and 100.93
- Growth ([5]; 6.25 nM OSM-S-106, 500 nM aTc): 96.7408 and 93.8415 and 101.366
- Growth ([5]; 6.25 nM OSM-S-106, no aTc): 92.1288 and 90.7869 and 100.211
- Growth ([5]; 12.5 nM OSM-S-106, 500 nM aTc): 103.105 and 71.6867 and 103.065
- Growth ([5]; 12.5 nM OSM-S-106, no aTc): 102.145 and 82.3472 and 97.2955
- Growth ([5]; 25 nM OSM-S-106, 500 nM aTc): 96.4937 and 50.4813 and 93.5
- Growth ([5]; 25 nM OSM-S-106, no aTc): 103.53 and 55.9318 and 95.9432
- ATP consumption ([6]; 0.1 μM OSM-S-106, PfAsnRS + tRNA, 0 μM = 100, 0.1 µM): 82.5658 and 96.0922
- ATP consumption ([6]; 0.1 μM OSM-S-106, PfAsnRS - tRNA, 0 μM = 100, 0.1 µM): 102.037 and 98.4072 and 106.756 and 97.2403 and 101.662
- ATP consumption ([6]; 0.1 μM OSM-S-106, PfAsnRS, normalised to 1 (Fig 3C), 0.1 µM): 0.9643 and 0.9875
- ATP consumption ([6]; 1 μM OSM-S-106, PfAsnRS + tRNA, 0 μM = 100, 1 µM): 57.1862 and 87.1941
- ATP consumption ([6]; 1 μM OSM-S-106, PfAsnRS - tRNA, 0 μM = 100, 1 µM): 113.687 and 120.029 and 93.4234 and 93.1495 and 103.899
- ATP consumption ([6]; 1 μM OSM-S-106, PfAsnRS, normalised to 1 (Fig 3C), 1 µM): 0.7028 and 0.7102
- ATP consumption ([6]; 3 μM OSM-S-106, PfAsnRS, normalised to 1 (Fig 3C), 3 µM): 0.5774 and 0.6156
- ATP consumption ([6]; 5 μM OSM-S-106, PfAsnRS + tRNA, 0 μM = 100, 5 µM): 38.7619 and 47.6862
- ATP consumption ([6]; 5 μM OSM-S-106, PfAsnRS - tRNA, 0 μM = 100, 5 µM): 106.249 and 114.714 and 99.7656 and 89.6731 and 97.6484
- ATP consumption ([6]; 10 μM OSM-S-106, PfAsnRS + tRNA, 0 μM = 100, 10 µM): 33.3781 and 42.1739
- ATP consumption ([6]; 10 μM OSM-S-106, PfAsnRS - tRNA, 0 μM = 100, 10 µM): 118.679 and 119.307 and 117.388 and 114.394 and 95.1041 and 101.36
- ATP consumption ([6]; 10 μM OSM-S-106, PfAsnRS, normalised to 1 (Fig 3C), 10 µM): 0.4326 and 0.4705
- ATP consumption ([6]; 25 μM OSM-S-106, PfAsnRS + tRNA, 0 μM = 100, 25 µM): 31.8347 and 29.629
- ATP consumption ([6]; 25 μM OSM-S-106, PfAsnRS - tRNA, 0 μM = 100, 25 µM): 125.392 and 106.541 and 117.104 and 104.95 and 102.467 and 90.9619
- ATP consumption ([6]; 30 μM OSM-S-106, PfAsnRS, normalised to 1 (Fig 3C), 30 µM): 0.3585 and 0.3795
- ATP consumption ([6]; 100 μM OSM-S-106, PfAsnRS + tRNA, 0 μM = 100, 100 µM): 21.4279 and 12.1476
- ATP consumption ([6]; 100 μM OSM-S-106, PfAsnRS - tRNA, 0 μM = 100, 100 µM): 100.893 and 101.422 and 99.2831 and 94.8016 and 84.8517
- ATP consumption ([6]; 100 μM OSM-S-106, PfAsnRS, normalised to 1 (Fig 3C), 100 µM): 0.3092 and 0.3431
- ATP consumption ([6]; 200 μM OSM-S-106, PfAsnRS - tRNA, 0 μM = 100, 200 µM): 112.741 and 109.993 and 91.5345 and 106.529 and 72.1689
- ATP consumption ([6]; 200 μM OSM-S-106, PfAsnRS, normalised to 1 (Fig 3C), 200 µM): 0.2731 and 0.3306
- ATP consumption ([6]; 500 μM OSM-S-106, PfAsnRS - tRNA, 0 μM = 100, 500 µM): 107.256 and 120.979 and 131.723 and 125.52 and 90.3898 and 80.1015
- IC50 ([6]; IC50, ATP consumption, 0.05 μM PfAsnRS, E. coli tRNA present, 37 °C, 1 h (Fig. 3C, D)): 6200 nM
- IC50 ([6]; IC50, ATP consumption, minus E. coli tRNA, 0.5 μM enzyme, […] (Fig. 3B)): > 500000 nM
- IC50 ([6]; IC50, ATP consumption, plus E. coli tRNA, 0.5 μM enzyme, 37 °C, […] (Fig. 3B)): 7300 nM
- IC50 ([6]; concentration needed to induce 50% inhibition of ATP consumption): ~1000 nM
- solubility ([7]; pH 2, simulated gastric fluid): 50 to 100 µg/mL (≈ 163 to 326 µM)
- solubility ([7]; pH 6.5, aqueous buffer): 12.5 to 25 µg/mL (≈ 40.8 to 81.6 µM)
- stability in the solid state [8]: stable in the solid state
